These results are taken from patent US12059400B2, “Medical compound” (VERA SALUS RICERCA S.R.L., priority 2017, dated 2024).

pIC50: −log10 of the molar value.

The experiment deals with human ovarian carcinoma cells (OVCAR-3). Description: Cell proliferation, crystal violet method. It is filed as cell-based.

A word on the pIC50: it is the negative decadic logarithm of the IC50, by convention in mol/L. As for “2-(3,4-dihydroxyphenyl)-5,7-dihydroxy-4-oxo-4H-chromen-3-yl palmitate [Compound 5]”, the “OVCAR-3 cell growth vs vehicle control” value (60 μM, FIG. 11a, 11b) is listed as “significantly inhibit”. Moreover, under “crystal violet, spectrophotometer, read-out: IC50 anti-proliferative effect, OCC - (OVCAR)”, the negative-log IC50 (pIC50) is 4.10.
